Assay: Blood-brain-barrier crossing, brain and plasma levels in mice
Format: in vivo
Conditions: intravenous
Protocol: Further evaluation may be performed on bryostatin or other PKC activating compound crossing the blood-brain-barrier (BBB) and the steady state levels of bryostatin or other PKC activating compound in the brain and plasma of mice.
In contrast, plasma concentrations of bryostatin or other PKC activating compound may be greater when the drug is administered as a single injection for three consecutive weeks. Blood plasma concentrations of bryostatin or other PKC activating compound may be less in mice receiving a 25 μg/m^2 dose as a “1 on/1 off” or a “2 on/1 off” administration. Without being bound to a specific theory, it may be hypothesized that the intermittent dosing regimen facilitates the transport of bryostatin or other PKC activating compound across the BBB.

Q: For CCC/C=C/C=C/C(=O)O[C@H]1/C(=C/C(=O)OC)C[C@H]2C[C@H]([C@@H](C)O)OC(=O)C[C@H](O)C[C@@H]3C[C@H](OC(C)=O)C(C)(C)[C@](O)(C[C@@H]4C/C(=C/C(=O)OC)C[C@H](/C=C/C(C)(C)[C@]1(O)O2)O4)O3 [Bryostatin-1], which crossing the blood-brain-barrier is on record?
A: crosses the BBB

From US20220184028A1, “TREATMENT OF AMYOTROPHIC LATERAL SCLEROSIS USING PKC ACTIVATORS” (Synaptogenix, Inc., priority 2020, published 2022)
